Assays:
serotonin reuptake = target: T1, serotonin reuptake (Rattus norvegicus, UniProt P31652); experiment: Serotonin transport inhibition, [3H]5-HT uptake in rat cortical synaptosomes; format: biochemical; details: [3H]5-HT 10 nM
T1 construct: rat cortical synaptosome preparation; from tissue; host or cells: rat cortical synaptosomes
Method: (§1) Aliquots of test compound and rat cortical synaptosome preparation were pre-incubated for 10 min/37° C., and then added [^3H]NE or [^3H]5-HT (final concentration 10 nM). Non-specific uptake was determined in the presence of 10 μM talsupram or citalopram and the total uptake was determined in the presence of buffer. Aliquots were incubated for 15 minutes at 37° C. After the incubation [^3H]NE or [^3H]5-HT taken up by synaptosomes was separated by filtration through Unifilter GF/C, presoaked in 0.1% PEI for 30 minutes, using a Tomtec CellHarvester program. Filters were washed and counted in a Wallac MicroBeta counter.

Rats = experiment: Impact on sleep architecture, EEG/EMG in rats; format: in vivo, rat; details: for % of time spent in REM / % of time spent in SWS / % of time spent in Wake: second hour of recording; for sleep latency: time from injection until first consolidated sleeping episode
Method: Rats were implanted with EEG and EMG electrodes to monitor the brain electrical activity and the muscle electrical activity, respectively. The electrodes were connected to a radio transmitter allowing a continuous collection of activity data from freely moving, undisturbed and home-caged animals. The EEG and EMG data were visually scored to determine the arousal states wake, SWS and REM sleep. A group of 10 rats were administered vehicle or the compound of the present invention corresponding to 0.4 mg/kg and 4 mg/kg of the free base. A William's square cross over design was applied so that each animal receives each treatment once.

5-HT2A receptors = 5-HT2A receptors (Homo sapiens, UniProt P28223); experiment: 5-HT2A receptor affinity (MDL Pharmaservices catalogue number 271650); format: binding; design: purchased MDL Pharmaservices 271650; details: Cheng Prusoff from IC50, 5 concentrations
Method: 5 concentration of compound (1, 10, 30, 100, 1000 nM) were used to calculate the IC50 value. Ki was calculated from the Cheng Prusoff equation Ki=(IC50/(1+([L]/Kd)) Affinity was determined at MDL Pharmaservices catalogue number 271650.

noradrenalin reuptake = target: T2, noradrenalin reuptake (Rattus norvegicus, UniProt Q63380); experiment: Noradrenalin transport inhibition, [3H]NE uptake in rat cortical synaptosomes; format: biochemical; details: [3H]NE 10 nM
T2 construct: rat cortical synaptosome preparation; from tissue; host or cells: rat cortical synaptosomes
Method: as §1

T1 sequence (P31652 whole entry): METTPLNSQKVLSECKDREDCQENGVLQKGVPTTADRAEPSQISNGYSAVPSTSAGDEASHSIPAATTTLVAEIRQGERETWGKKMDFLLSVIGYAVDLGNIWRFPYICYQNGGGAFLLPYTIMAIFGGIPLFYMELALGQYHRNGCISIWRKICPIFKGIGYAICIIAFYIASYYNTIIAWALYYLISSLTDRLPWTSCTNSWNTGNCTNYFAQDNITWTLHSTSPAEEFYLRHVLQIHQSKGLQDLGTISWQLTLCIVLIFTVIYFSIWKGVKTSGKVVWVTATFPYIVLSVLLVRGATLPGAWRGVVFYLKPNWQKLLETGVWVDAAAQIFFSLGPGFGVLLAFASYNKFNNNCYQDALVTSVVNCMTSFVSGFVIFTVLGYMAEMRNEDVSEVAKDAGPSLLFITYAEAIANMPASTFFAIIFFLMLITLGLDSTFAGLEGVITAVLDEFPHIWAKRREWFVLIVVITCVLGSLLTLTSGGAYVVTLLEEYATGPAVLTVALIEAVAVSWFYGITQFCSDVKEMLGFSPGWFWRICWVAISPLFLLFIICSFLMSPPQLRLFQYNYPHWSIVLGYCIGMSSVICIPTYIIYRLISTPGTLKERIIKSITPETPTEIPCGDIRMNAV
T2 sequence (Q63380 1-617): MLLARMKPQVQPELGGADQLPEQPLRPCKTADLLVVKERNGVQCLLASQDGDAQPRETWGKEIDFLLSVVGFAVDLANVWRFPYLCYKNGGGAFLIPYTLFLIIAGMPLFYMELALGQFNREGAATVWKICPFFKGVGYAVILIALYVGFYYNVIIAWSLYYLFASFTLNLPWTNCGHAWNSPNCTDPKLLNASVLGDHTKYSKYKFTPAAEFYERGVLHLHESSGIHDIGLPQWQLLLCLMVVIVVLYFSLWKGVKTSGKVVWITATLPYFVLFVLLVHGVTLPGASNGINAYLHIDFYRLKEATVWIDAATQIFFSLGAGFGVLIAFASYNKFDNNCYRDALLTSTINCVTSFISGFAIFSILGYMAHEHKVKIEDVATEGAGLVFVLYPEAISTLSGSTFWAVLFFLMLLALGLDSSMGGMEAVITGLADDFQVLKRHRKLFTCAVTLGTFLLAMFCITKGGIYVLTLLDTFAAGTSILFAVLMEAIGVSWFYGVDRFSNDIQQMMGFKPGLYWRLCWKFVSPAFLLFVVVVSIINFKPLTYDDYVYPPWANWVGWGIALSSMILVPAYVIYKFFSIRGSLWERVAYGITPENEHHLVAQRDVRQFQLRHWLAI
5-HT2A receptors, sequence (P28223 whole entry): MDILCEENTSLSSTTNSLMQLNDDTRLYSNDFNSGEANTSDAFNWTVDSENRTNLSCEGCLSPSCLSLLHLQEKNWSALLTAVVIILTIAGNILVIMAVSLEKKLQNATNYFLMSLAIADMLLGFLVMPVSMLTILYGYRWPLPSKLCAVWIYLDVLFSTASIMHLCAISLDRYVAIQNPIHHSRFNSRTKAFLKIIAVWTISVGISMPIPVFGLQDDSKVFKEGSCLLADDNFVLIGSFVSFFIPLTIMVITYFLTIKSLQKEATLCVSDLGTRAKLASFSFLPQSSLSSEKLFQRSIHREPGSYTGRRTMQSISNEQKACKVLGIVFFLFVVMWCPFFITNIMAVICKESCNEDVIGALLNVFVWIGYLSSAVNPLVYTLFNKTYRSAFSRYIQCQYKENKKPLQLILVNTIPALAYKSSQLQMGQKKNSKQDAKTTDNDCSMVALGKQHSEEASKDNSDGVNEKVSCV

In the case of CNCc1ccccc1Sc1c[nH]c2cc(F)ccc12 [compounds of the present invention, [2-(6-fluoro-1H-indol-3-ylsulfanyl)benzyl]methyl amine], the IC50 (serotonin reuptake) is reported as 0.4 nM, the “% of time spent in REM” value (Rats; 0.4 mg/kg free base) is reported as 0.00% and the “% of time spent in SWS” value (Rats; 0.4 mg/kg free base) is reported as 62.08%. For the same molecule, the “% of time spent in Wake” value (Rats; 0.4 mg/kg free base) was 37.92%, the sleep latency (Rats; 0.4 mg/kg) was 26.43 min and the “% of time spent in REM” value (Rats; 4.0 mg/kg free base) was 0.00%. The “% of time spent in SWS” value (Rats; 4.0 mg/kg free base) was 69.97%, the “% of time spent in Wake” value (Rats; 4.0 mg/kg free base) was 30.03% and the sleep latency (Rats; 4.0 mg/kg) was 20.62 min. It also gave a Ki (5-HT2A receptors) of 14 nM and an IC50 (noradrenalin reuptake) of 4.4 nM.

From patent publication US8138220B2, “[2-(6-fluoro-1H-indol-3-ylsulfanyl)benzyl]methyl amine for the treatment of affective disorders” (H. Lundbeck A/S, priority 2006, dated 2012)
